Measured values reported in article PMC6167350, “Small-molecule AgrA inhibitors F12 and F19 act as antivirulence agents against Gram-positive pathogens” (Scientific Reports, 2018).

Assays:
[1] = biological target: T1, AgrA (C-terminal DNA-binding domain, AgrA_C) (Staphylococcus aureus, UniProt P0A0I7, C199S); assay: microscale thermophoresis (Alexa Fluor 647-labeled protein)
T1 sequence (P0A0I7 143-238 C199S): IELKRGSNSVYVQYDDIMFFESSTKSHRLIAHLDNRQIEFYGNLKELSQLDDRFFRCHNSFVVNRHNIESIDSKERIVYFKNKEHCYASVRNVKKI

[2] = biological target: AgrA (C-terminal DNA-binding domain, AgrA_C) (Staphylococcus epidermidis, UniProt Q8CNM5); assay: microscale thermophoresis; also EMSA (F19 blocks P3 DNA binding)

SMILES	Kd [1] [nM]	Kd [2] [nM]
CCCCCCc1cc(C(=O)COc2ccc(F)cc2F)c(O)cc1O [F12]	4500 ± 400	
CCCCCCc1cc(C(=O)COc2ccc(C(C)C)cc2)c(O)cc1O [F19]	2900 ± 400	2700 ± 700
